Values quoted from earlier work in paper PMC9917560, “Design, Synthesis and Antimicrobial Evaluation of New N-(1-Hydroxy-1,3-dihydrobenzo[c][1,2]oxaborol-6-yl)(hetero)aryl-2-carboxamides as Potential Inhibitors of Mycobacterial Leucyl-tRNA Synthetase” (International Journal of Molecular Sciences, 2023).
Marks after values point to notes of the source that are not given here.

Experiments:
[1] = test system: Mtb H37Rv; set-up: method as in PMID 27503647; conditions: compounds synthesized and evaluated by Palencia et al. ref [13]; cited from earlier work
[2] = test system: Mtb LeuRS; set-up: method as in PMID 27503647, PMID 28953378; conditions: ref [13],[14]; read-out: IC50 against LeuRS; cited from earlier work

SMILES | MIC Mtb H37Rv [1] | IC50 [2]
OB1OCc2ccccc21 [Compound C00021, (3H)-Benzo[c][1,2]oxaborol-1-ol] | 55.99 * µM | –
NC[C@H]1OB(O)c2c(OCCO)ccc(Cl)c21 [GSK656, (S)-3-(Aminomethyl)-4-chloro-7-(2hydroxyethoxy)benzo c 1,2 oxaborol-1(3 H)-ol] | – | 200 nM
